Data as given in article PMC7472048 (Viruses, 2020).

Assays:
[1] = test system: rLCMV/ZsG; assay: microbe, parasite or virus in culture; format: cell-based, lymphocytic choriomeningitis virus (LCMV); settings: Mammarenavirus choriomeningitidis, A549, 48 h, read-out: rLCMV (A549 cell) EC50
[2] = test system: rLASV; assay: microbe, parasite or virus in culture; format: cell-based, Lassa virus (LASV); settings: Mammarenavirus lassaense, A549, read-out: rLASV (A549 cell) EC50
[3] = test system: r3Can; assay: organism not typed; format: cell-based, Junín virus (JUNV) Candid#1 strain; settings: Vero, read-out: r3Can (Vero cell) EC50
[4] = test system: rLASV/GFP; format: cell-based, Lassa virus (LASV)
[5] = test system: r3Can/GFP; format: cell-based, Junín virus (JUNV)
[6] = test system: IFNB and ISG mRNA expression; format: cell-based, Homo sapiens
[7] = in vitro; settings: human
[8] = in vitro; settings: African green monkey (Chlorocebus aethiops)
[9] = test system: LASV Z-mediated budding; format: cell-based, Lassa virus (LASV)
[10] = test system: LCMV CL-13; set-up: species or system C57BL/6 mice; settings: mouse, in vivo, 150 mg/kg/day
[11] = test system: rCL-13/ZsG; format: cell-based, lymphocytic choriomeningitis virus (LCMV)
[12] = test system: influenza A virus; settings: mouse, in vivo; cited from earlier work

| SMILES | EC50 [1] | EC50 [2] | EC50 [3] | rLASV/GFP propagation [4] | r3Can/GFP propagation [5] | mRNA levels of IFNB and ISGs in LCMV-infected cells [6] | ISG15 and IFIT1 expression in non-infected A549 cells ([6]; 5 µM, 48 h) | expression of IFNB in non-infected A549 cells ([6]; 5 µM, 48 h) | CC50 [7] | CC50 [8] | Z budding efficiency, ratio ZVLP:(ZVLP+ZWCL) [9] | body weight loss and recovery versus vehicle control [10] | viral load (serum virus titers) [10] | Cmp 4-induced antiviral effect with exogenous uridine [11] | survival [12] |
| --- | --- | --- | --- | --- | --- | --- | --- | --- | --- | --- | --- | --- | --- | --- | --- |
| Cc1c(-c2ccc(-c3ccccc3F)cc2)nc2ccc(F)cc2c1C(=O)O [Brequinar] | 41 nM | 63 nM | 40 nM | strongly inhibited | strongly inhibited | significantly decreased | moderately upregulated | Neither Cmp 1 nor brequinar treatment significantly affected | 79000 nM | 47200 nM |  |  |  |  |  |
| COc1cccc(-c2ccc(NC(=O)C3=C(C(=O)O)CCC3)c(F)c2)c1 [Cmp 4, vidofludimus calcium] | 1280 nM | 3020 nM | 1680 nM |  |  |  |  |  | 54400 nM | 5920 nM | very modest, but statistically significant, effect | less body weight loss and faster recovery | did not cause a significant reduction | reverted |  |
| CCOc1ccc(-c2cc(C(=O)O)c3cc(Br)ccc3n2)cc1 [FA-613] |  |  |  |  |  |  |  |  |  |  |  |  |  |  | increased survival |
